Measured values reported in patent US10570180B2, “Anti-bacterial agents and their use in therapy” (priority 2015, dated 2020).
Values after ≈ are worked out from the molar mass of the structure shown. Read-outs that look alike come from different tables or passages of the source. Ends that are not written are not given here.

Columns and labels:
[1] = test system: Staphylococcus aureus MRSA 1040s; assay: microbe, parasite or virus in culture; assay type: cell-based; conditions: for MIC of Erythromycin (Relative values): concentration of APIM peptide 15 μg/ml
Protocol: (§1) ATX-101 was dissolved in Mueller-Hinton broth to 1.25 times of the desired assay concentration. Antibiotics were dissolved in Mueller-Hinton broth and Mueller-Hinton broth with ATX-101 at a concentration of 1.25 times the highest desired assay concentrations. Antibiotics were pharmaceutical grade purchased from Sigma-Aldrich.
(§2) Two-fold serial dilutions of antibiotics were made in Mueller-Hinton with different concentrations of ATX-101, and the solutions were placed in four parallel wells is Nunc 384-well micro plates (30 μl per well in Nunc 242757 microplates). A group of 8 wells with no addition of antibiotics for each ATX-101 concentration was included on each micro plate as a growth reference.
(§3) At the day of analysis, overnight TSB cultures inoculated from freeze stocks (6 ml in 50 ml tube tilted to 45-degrees angle, 200 rpm, 2.5 cm amplitude, 37° C.) were diluted in TSB until the OD800 was 0.10, and further diluted 1:40 in Mueller-Hinton broth. Each well in the 384-well assay plates was inoculated with 7.5 μl of the diluted culture, giving the same dilution of the culture in the assay cultures. The microplates were placed in plastic bags and incubated without shaking at 37° C. The optical density at 600 nm in the microwells was measured after approximately 19 hours of incubation, and the relative growth yield was calculated based on the growth in the reference groups. The MIC value was set to the highest concentration giving less than 30% growth in all 4 parallel wells within the sample groups. The microplates were further incubated for 6 hours, and optical density in the cultures was measured once more for confirmation of the estimated MIC-values.
as §1, with “The APIM peptide was” for “ATX-101 was”, “with APIM” for “with ATX-101”
as §2, with “APIM,” for “ATX-101,”, “in” for “is”, “APIM” for “ATX-101”, “as” for “as a”
as §3, with “inoculated” for “inoculated from”, “OD600” for “OD800”, “culture.” for “culture, giving the same dilution of the culture in the assay cultures.”, “yield in each well” for “yield”
In view of the anti-bacterial effect of ATX-101 on strains of MRSA, the MIC for a variety of APIM variants was determined using Staphylococcus aureus MRSA 1040s. […] A cell penetrating peptide (SEQ ID NO: 337) present in all of the APIM peptides, was used as a negative control.
Next, the effect of APIM peptides on the MIC of antibiotics was determined using Staphylococcus aureus MRSA 1040s.
(§4) The MICS for various APIM peptides were determined for various bacteria, as described above.

[2] = test system: E. faecium CCUG 37832 (TO-3); assay type: cell-based, Enterococcus faecium; conditions: CCUG 37832
Protocol: as §1, §2, §3
Accordingly, concentrations of 8 μg/ml and 16 μg/ml of ATX-101 were combined with various antibiotics selected from; 2,4-Diamin, S. methizol, S. methoxa, S. dimetho, Surfaceta, Trimeth, Flumeq, Levoflox, Pruliflox, Metronid and Nitrofur.
as §4

E. faecium TO-12 = assay type: cell-based
Protocol: as §1, §2, §3, §4

[3] = test system: Staphylococcus aureus NCTC 6571; assay type: cell-based; conditions: NCTC 6571
Protocol: as §1, §2, §3, §4

A. baumanii ATCC 19606 = assay: MIC assay of antibiotics with ATX-101; assay type: cell-based; conditions: Acinetobacter baumannii
Protocol: as §1, with “The APIM peptide was” for “ATX-101 was”, “with APIM” for “with ATX-101”
as §2, with “APIM,” for “ATX-101,”, “in” for “is”, “APIM” for “ATX-101”, “as” for “as a”
as §3, with “inoculated” for “inoculated from”, “OD600” for “OD800”, “culture.” for “culture, giving the same dilution of the culture in the assay cultures.”, “yield in each well” for “yield”

E. faecium CTC 492 = assay: MIC assay of antibiotics with ATX-101; assay type: cell-based, Enterococcus faecium; conditions: Enterococcus faecium, CTC492, E. faecium CTC 492, read-out: Est MIC
Protocol: The minimum inhibitory concentration (MIC) of ATX-101 (SEQ ID NO: 1289) was determined for various gram negative and gram positive bacteria. The bacteria, Pseudomonas aeruginosa ATCC 15692, Acinetobacter baumenni ATCC 19600, Escherichia coli ATCC 25922, Pseudomonas aeruginosa TO-5A (clinical isolate), Enterococous faecium CCUG 37832, Enterococcus faecium CTC 492, Micrococcus luteus ATCC 9341 and Escherichie coli NCIMB 12210 were grown in the presence of various concentrations of ATX-101 and/or antibiotic.
as §1, §2, §3
as §1, with “The APIM peptide was” for “ATX-101 was”, “with APIM” for “with ATX-101”
as §2, with “APIM,” for “ATX-101,”, “in” for “is”, “APIM” for “ATX-101”, “as” for “as a”
as §3, with “inoculated” for “inoculated from”, “OD600” for “OD800”, “culture.” for “culture, giving the same dilution of the culture in the assay cultures.”, “yield in each well” for “yield”

[4] = ATCC19606, A. baumanii ATCC 19606, APIM (ATX-101) conc. 2 μg/ml, read-out: Est MIC
[5] = ATCC19606, A. baumanii ATCC 19606, APIM (ATX-101) conc. 4 μg/ml, read-out: Est MIC
[6] = ATCC19606, A. baumanii ATCC 19606, APIM (ATX-101) conc. 8 μg/ml, read-out: Est MIC
[7] = ATCC19606, A. baumanii ATCC 19606, APIM conc. 0 μg/ml, read-out: Est MIC

For “MDRWLTKWKKKRKIRRRRRRRRRRR [SEQ ID NO: 1300]”, the “MIC of Erythromycin (Relative values)” value ([1]; MRSA 1040s) was 100, the MIC [2] was 7.5 µM and the MIC (E. faecium TO-12) was 25.3 µM. For the same compound, the MIC [3] was 37.9 µM.
In the case of “MDRWLSKWKKKRKIRRRRRRRRRRR [SEQ ID NO: 1302]”, the “MIC of Erythromycin (Relative values)” value ([1]; MRSA 1040s) was 200, the MIC [2] was 7.5 µM and the MIC (E. faecium TO-12) was 16.8 µM. For the same compound, the MIC [3] was 37.9 µM.
For `CO[C@H]1/C=C/O[C@@]2(C)Oc3c(C)c(O)c4c(O)c(c(/C=N/N5CCN(C)CC5)c(O)c4c3C2=O)NC(=O)/C(C)=C\C=C\[C@H](C)[C@H](O)[C@@H](C)[C@@H](O)[C@@H](C)[C@H](OC(C)=O)[C@@H]1C` [Rifampicin], the MIC (A. baumanii ATCC 19606; [4]) was 2 µg/mL (≈ 2.43 µM), the MIC (A. baumanii ATCC 19606; [5]) was 1 µg/mL (≈ 1.22 µM) and the MIC (A. baumanii ATCC 19606; [6]) was 1 µg/mL (≈ 1.22 µM). It also gave an MIC (A. baumanii ATCC 19606; [7]) of 2 µg/mL (≈ 2.43 µM), an MIC (E. faecium CTC 492; APIM (ATX-101) conc. 6.5 μg/ml) of 32 µg/mL (≈ 38.9 µM) and an MIC (E. faecium CTC 492; APIM (ATX-101) conc. 13 μg/ml) of 4 µg/mL (≈ 4.86 µM). It also gave an MIC (E. faecium CTC 492; APIM (ATX-101) conc. 20 μg/ml) of 8 µg/mL (≈ 9.72 µM) and an MIC (E. faecium CTC 492; APIM conc. 0 μg/ml) of 16 µg/mL (≈ 19.4 µM).
`CN[C@@H]1[C@@H](O[C@H]2O[C@H](CO)[C@@H](N)[C@H](O)[C@H]2O)OC2C[C@@H](N)[C@@H](O[C@H]3[C@H](O)[C@@H](O)[C@H](N)C[C@@H]3N)OC2[C@@H]1O` (stereo partly shown) [Apramycin] showed an MIC (E. faecium CTC 492; APIM (ATX-101) conc. 6.5 μg/ml) of 64 µg/mL (≈ 119 µM), an MIC (E. faecium CTC 492; APIM (ATX-101) conc. 13 μg/ml) of 32 µg/mL (≈ 59.3 µM) and an MIC (E. faecium CTC 492; APIM conc. 0 μg/ml) of 64 µg/mL (≈ 119 µM).
`CN[C@H](CC(C)C)C(=O)N[C@H]1C(=O)N[C@@H](CC(N)=O)C(=O)N[C@H]2C(=O)N[C@H]3C(=O)N[C@H](C(=O)N[C@H](C(=O)O)c4cc(O)cc(O)c4-c4cc3ccc4O)[C@H](O)c3ccc(c(Cl)c3)Oc3cc2cc(c3O[C@@H]2O[C@H](CO)[C@@H](O)[C@H](O)[C@H]2O[C@H]2C[C@](C)(N)[C@H](O)[C@H](C)O2)Oc2ccc(cc2Cl)[C@H]1O` [Vancomycin] gave an MIC (A. baumanii ATCC 19606; ATCC19606, read-out: Est MIC, A. baumanii ATCC 19606, APIM (ATX-101) conc. 2 μg/ml) of 32 µg/mL (≈ 22.1 µM), an MIC (A. baumanii ATCC 19606; ATCC19606, read-out: Est MIC, A. baumanii ATCC 19606, APIM (ATX-101) conc. 4 μg/ml) of 16 µg/mL (≈ 11 µM) and an MIC (A. baumanii ATCC 19606; ATCC19606, read-out: Est MIC, A. baumanii ATCC 19606, APIM conc. 0 μg/ml) of 32 µg/mL (≈ 22.1 µM).
For `CC[C@H]1OC(=O)[C@H](C)[C@@H](O[C@H]2C[C@@](C)(OC)[C@@H](O)[C@H](C)O2)[C@H](C)[C@@H](O[C@@H]2O[C@H](C)C[C@H](N(C)C)[C@H]2O)[C@](C)(O)C[C@@H](C)C(=O)[C@H](C)[C@@H](O)[C@]1(C)O` [Erythromycin], the MIC ([1]; Staphylococcus aureus, Table 6, alone, MRSA 1040s, read-out: MIC) was over 1030 µg/mL, the “MIC when combined with 10 μg/ml of ATX-101” value ([1]; Table 6, MRSA 1040s) was 2 µg/mL and the MIC (E. faecium CTC 492; APIM (ATX-101) conc. 6.5 μg/ml) was 4 µg/mL (≈ 5.45 µM). For the same compound, the MIC (E. faecium CTC 492; APIM (ATX-101) conc. 13 μg/ml) was 1 µg/mL (≈ 1.36 µM) and the MIC (E. faecium CTC 492; APIM conc. 0 μg/ml) was 4 µg/mL (≈ 5.45 µM).
With `CC[C@@]1([C@@H]2O[C@@H]([C@H]3O[C@@](O)(CO)[C@H](C)C[C@@H]3C)C[C@@H]2C)CC[C@H]([C@]2(C)CC[C@]3(C[C@H](O)[C@@H](C)[C@@H]([C@@H](C)[C@@H](OC)[C@H](C)C(=O)O)O3)O2)O1` [Monensin] the MIC (A. baumanii ATCC 19606; [4]) was 64 µg/mL (≈ 95.4 µM), the MIC (A. baumanii ATCC 19606; [5]) was 64 µg/mL (≈ 95.4 µM) and the MIC (A. baumanii ATCC 19606; [6]) was 32 µg/mL (≈ 47.7 µM). For the same compound, the MIC (A. baumanii ATCC 19606; [7]) was 64 µg/mL (≈ 95.4 µM), the MIC (E. faecium CTC 492; APIM (ATX-101) conc. 6.5 μg/ml) was 0.5 µg/mL (≈ 0.745 µM) and the MIC (E. faecium CTC 492; APIM (ATX-101) conc. 13 μg/ml) was 0.5 µg/mL (≈ 0.745 µM). The MIC (E. faecium CTC 492; APIM conc. 0 μg/ml) was 1 µg/mL (≈ 1.49 µM).
`NC[C@H]1O[C@H](O[C@H]2[C@H](O)[C@@H](O[C@H]3O[C@H](CO)[C@@H](O)[C@H](N)[C@H]3O)[C@H](N)C[C@@H]2N)[C@H](N)C[C@@H]1O` [Tobramycin] gave an MIC (E. faecium CTC 492; APIM (ATX-101) conc. 6.5 μg/ml) of 64 µg/mL (≈ 137 µM), an MIC (E. faecium CTC 492; APIM (ATX-101) conc. 13 μg/ml) of 32 µg/mL (≈ 68.4 µM) and an MIC (E. faecium CTC 492; APIM conc. 0 μg/ml) of 64 µg/mL (≈ 137 µM).
